`*C(=O)Nc1cc(NC(=O)c2ccc3[nH]c(-c4cccc(-c5nc6cc(*)ccc6[nH]5)c4)nc3c2)cc(-c2nc3ccccc3[nH]2)c1` (repeat unit) registered a glass transition temperature of 315.00 °C.

`*C(=O)Nc1cc(NC(=O)c2ccc3c(c2)C(=O)N(c2cc(-c4nnc(-c5ccccn5)o4)cc(N4C(=O)c5ccc(*)cc5C4=O)c2)C3=O)cc(-c2nnc(-c3ccccn3)o2)c1` (repeat unit): the glass transition temperature worked out at 164.00 °C.

In the case of `*C(=O)Nc1ccc(-c2cc(-c3ccccc3)cc(-c3ccc(NC(=O)c4ccc5c(c4)C(=O)N(c4cccc(P(=O)(c6ccccc6)c6cccc(N7C(=O)c8ccc(*)cc8C7=O)c6)c4)C5=O)cc3)n2)cc1` (repeat unit), the glass transition temperature amounted to 258.00 °C.

Regarding `*C(=O)Nc1ccc(-c2ccc(NC(=O)c3ccc4c(c3)C(=O)N(c3ccc(S(=O)(=O)c5ccc(N6C(=O)c7ccc(*)cc7C6=O)cc5)cc3)C4=O)cc2)cc1` (repeat unit), the glass transition temperature is 370.00 °C.

For `*C(=O)Nc1ccc(-c2sc(-c3ccc(NC(=O)c4ccc5c(c4)C(=O)N(c4ccc(-c6sc(-c7ccc(N8C(=O)c9ccc(*)cc9C8=O)cc7)c(-c7ccccc7)c6-c6ccccc6)cc4)C5=O)cc3)c(-c3ccccc3)c2-c2ccccc2)cc1` (repeat unit), the glass transition temperature turned out to be 338.00 °C.

`*C(=O)Nc1ccc(C(c2ccc(NC(=O)c3ccc4c(c3)C(=O)N(c3cccc5c(N6C(=O)c7ccc(*)cc7C6=O)cccc35)C4=O)cc2)(C(F)(F)F)C(F)(F)F)cc1` (repeat unit): the glass transition temperature came out at 250.00 °C.

Regarding `*C(=O)Nc1ccc(C2(c3ccc(NC(=O)c4ccc5c(c4)C(=O)N(c4ccc(Oc6cccc(Oc7ccc(N8C(=O)c9ccc(*)cc9C8=O)cc7)c6)cc4)C5=O)cc3)c3ccccc3-c3ccccc32)cc1` (repeat unit), the glass transition temperature turned out to be 278.00 °C.

Compound `*C(=O)OCCCCCCCCCCOC(=O)c1ccc(NC(=O)c2ccc(N3C(=O)c4ccc(*)cc4C3=O)cc2)cc1` (repeat unit) yielded a glass transition temperature of 102.00 °C.

Take `*C(=O)OCCCCCCCCOC(=O)c1ccc(NC(=O)c2ccc(N3C(=O)c4ccc(*)cc4C3=O)cc2)cc1` (repeat unit): the glass transition temperature was determined as 105.00 °C.

On to `*C(=O)OCCCCCOC(=O)c1ccc(NC(=O)c2ccc(N3C(=O)c4ccc(*)cc4C3=O)cc2)cc1` (repeat unit), for which the glass transition temperature was 129.00 °C.

Compound `*C(=O)c1cc2c(cc1Cl)C(=O)N(c1cc(Cl)c(N3C(=O)c4cc(*)c(Cl)cc4C3=O)cc1Cl)C2=O` (repeat unit) returned a glass transition temperature of 367.00 °C.

Compound `*CCCCCCCCCCOc1ccc(-c2cc(-c3ccccc3)c(-c3ccc(NC(=O)c4ccc(C(=O)Nc5ccc(-c6c(-c7ccccc7)cc(-c7ccc(O*)cc7)cc6-c6ccccc6)cc5)cc4)cc3)c(-c3ccccc3)c2)cc1` (repeat unit) displayed a glass transition temperature of 116.00 °C.

The compound `*CCOC(=O)Nc1ccc(CCCCc2ccc(NC(=O)O*)cc2)cc1` (repeat unit) came in with a glass transition temperature of 105.70 °C.

In the case of `*CCOCCOCCOCCOCCOCCOc1ccc(C(=O)Nc2cc(NC(=O)c3ccc(O*)cc3)cc(-c3nc4ccccc4[nH]3)c2)cc1` (repeat unit), the glass transition temperature turned out to be 125.00 °C.

The compound `*CCOCCOCCOCCOCCOc1ccc(C(=O)Nc2cc(NC(=O)c3ccc(O*)cc3)cc(-c3nc4ccccc4[nH]3)c2)cc1` (repeat unit) gave a glass transition temperature of 145.00 °C.

Consider `*CCOCCOCCOc1ccc(C(=O)Nc2cc(NC(=O)c3ccc(O*)cc3)cc(-c3nc4ccccc4[nH]3)c2)cc1` (repeat unit), for which the glass transition temperature was 165.00 °C.

The compound `*CCOCCOc1ccc(C(=O)Nc2cc(NC(=O)c3ccc(O*)cc3)cc(-c3nc4ccccc4[nH]3)c2)cc1` (repeat unit) registered a glass transition temperature of 230.00 °C.

Compound `*CCOc1ccc(C(=O)Nc2cc(NC(=O)c3ccc(O*)cc3)cc(-c3nc4ccccc4[nH]3)c2)cc1` (repeat unit) yielded a glass transition temperature of 275.00 °C.

In turn, `*Nc1cc(NC(=O)c2ccc(C(*)=O)cc2)cc(C(=O)Oc2ccccc2)c1` (repeat unit) showed a glass transition temperature of 200.00 °C.

`*Nc1cc(NC(=O)c2ccccc2C(*)=O)cc(-c2nnc(-c3ccccn3)o2)c1` (repeat unit) showed a glass transition temperature of 90.00 °C.

Compound `*Nc1ccc(-c2ccc(NC(=O)c3ccc(C(*)=O)cc3)cc2)cc1` (repeat unit) had a glass transition temperature of 340.00 °C.

Take `*Nc1ccc(-c2ccc(NC(=O)c3cccc(C(*)=O)c3)c(O)c2)cc1O` (repeat unit): the glass transition temperature stood at 386.00 °C.

As for `*Nc1ccc(-c2ccc(NC(=O)c3cccc(C(*)=O)c3)cc2)cc1` (repeat unit), the glass transition temperature was 294.00 °C.

Compound `*Nc1ccc(-c2ccc(Nc3ccc4c(c3)c3cc(*)ccc3n4CC(CC)CCCC)cc2)cc1` (repeat unit) came in with a glass transition temperature of 231.00 °C.

For `*Nc1ccc(/C=C/c2ccc(NC(=C(C#N)C#N)c3ccc(C(*)=C(C#N)C#N)cc3)cc2)cc1` (repeat unit), the glass transition temperature was 250.00 °C.

`*Nc1ccc(Br)cc1-c1ccc(NC(=O)c2ccc(C(*)=O)cc2)cc1` (repeat unit) gave a glass transition temperature of 285.00 °C.

Turning to `*Nc1ccc(Br)cc1-c1ccc(NC(=O)c2cccc(C(*)=O)c2)cc1` (repeat unit), the glass transition temperature amounted to 253.00 °C.

With `*Nc1ccc(C(=O)c2ccc(C(=O)c3ccc(Nc4ccc5c(c4)c4cc(*)ccc4n5CC(CC)CCCC)cc3)cc2)cc1` (repeat unit), the glass transition temperature was 213.00 °C.

`*Nc1ccc(C(=O)c2ccc(Nc3ccc4c(c3)c3cc(*)ccc3n4CC(CC)CCCC)cc2)cc1` (repeat unit): the glass transition temperature turned out to be 236.1 °C.

`*Nc1ccc(C(c2ccc(NC(=O)c3ccc(C(*)=O)cc3)cc2)(P2(=O)Oc3ccccc3-c3ccccc32)P2(=O)Oc3ccccc3-c3ccccc32)cc1` (repeat unit) yielded a glass transition temperature of 245.00 °C.

`*Nc1ccc(C(c2ccc(NC(=O)c3ccc4cc(C(*)=O)ccc4c3)cc2)(P2(=O)Oc3ccccc3-c3ccccc32)P2(=O)Oc3ccccc3-c3ccccc32)cc1` (repeat unit): the glass transition temperature is 241.00 °C.

The compound `*Nc1ccc(C(c2ccc(NC(=O)c3cccc(C(*)=O)c3)cc2)(P2(=O)Oc3ccccc3-c3ccccc32)P2(=O)Oc3ccccc3-c3ccccc32)cc1` (repeat unit) registered a glass transition temperature of 230.00 °C.

`*Nc1ccc(C2(c3ccc(NC(=O)c4cc(NC(=O)C56CC7CC(CC(C7)C5)C6)cc(C(*)=O)c4)cc3)c3ccccc3-c3ccccc32)cc1` (repeat unit) gave a glass transition temperature of 370.00 °C.

In turn, `*Nc1ccc(C2(c3ccc(NC(=O)c4ccc(C(*)=O)cc4)cc3)c3ccccc3-c3ccccc32)cc1` (repeat unit) had a glass transition temperature of 319.00 °C.

`*Nc1ccccc1CCc1ccccc1NC(=O)Nc1ccc(CCc2ccc(NC(*)=O)cc2)cc1` (repeat unit): the glass transition temperature amounted to 235.00 °C.

`*Oc1ccc(C(=O)Nc2cc(NC(=O)c3ccc(*)cc3)cc(-c3nc4ccccc4[nH]3)c2)cc1` (repeat unit) came in with a glass transition temperature of 335.00 °C.

As for `*Oc1ccc(C(=O)Nc2ccc(C(c3ccc(NC(=O)c4ccc(OC(=O)c5cccc(C(*)=O)c5)cc4)cc3)(C(F)(F)F)C(F)(F)F)cc2)cc1` (repeat unit), the glass transition temperature was 227.00 °C.

`*Oc1ccc(C(c2ccc(Oc3ccc(C(=O)Nc4ccc(-c5ccc(NC(=O)c6ccc(*)cc6)cc5C(F)(F)F)c(C(F)(F)F)c4)cc3)cc2)(C(F)(F)F)C(F)(F)F)cc1` (repeat unit) returned a glass transition temperature of 240.00 °C.

`*Oc1ccc(Oc2ccc(C(=O)c3ccc(NC(=O)c4ccc(C(=O)Nc5ccc(C(=O)c6ccc(*)cc6)cc5)cc4)cc3)cc2)cc1` (repeat unit): the glass transition temperature is 224.00 °C.

In turn, `*Oc1cccc(C(=O)Nc2ccc(-c3ccc(NC(=O)c4cccc(Oc5nc(*)nc(Sc6ccccc6)n5)c4)cc3)cc2)c1` (repeat unit) came in with a glass transition temperature of 279.00 °C.

In the case of `*c1ccc(-c2cc(-c3ccc(-c4ccccc4)cc3)cc(-c3ccc(N4C(=O)c5ccc(NC(=O)Nc6ccc(-c7cc(-c8ccc(-c9ccccc9)cc8)cc(-c8ccc(NC(=O)Nc9ccc%10c(c9)C(=O)N(*)C%10=O)cc8)n7)cc6)cc5C4=O)cc3)n2)cc1` (repeat unit), the glass transition temperature is 272.00 °C.

`*c1ccc(C(=O)Nc2ccc(-c3ccccc3NC(=O)c3ccc(S(*)(=O)=O)cc3)cc2)cc1` (repeat unit) displayed a glass transition temperature of 284.00 °C.

On to `*c1ccc(C(=O)Nc2ccc(-c3nnc(*)o3)cc2)c(Oc2ccccc2)c1` (repeat unit), for which the glass transition temperature came to 235.00 °C.

On to `*c1ccc(C(=O)c2ccc(Oc3ccc(-c4nn(*)c(=O)c5ccccc45)cc3)cc2)cc1` (repeat unit), for which the glass transition temperature was found to be 263.00 °C.

`*c1ccc(NC(=O)c2cc(C(=O)Nc3ccc(-c4nnc(*)o4)cc3)cc(N3C(=O)c4ccccc4C3=O)c2)cc1` (repeat unit): the glass transition temperature was determined as 327.00 °C.

Consider `*c1ccc(NC(=O)c2ccc(OCCOCCOCCOCCOCCOc3ccc(C(=O)Nc4ccc5[nH]c(*)nc5c4)cc3)cc2)cc1` (repeat unit), for which the glass transition temperature stood at 125.00 °C.

The compound `*c1ccc(NC(=O)c2ccc(OCCOCCOc3ccc(C(=O)Nc4ccc5[nH]c(*)nc5c4)cc3)cc2)cc1` (repeat unit) registered a glass transition temperature of 175.00 °C.

`*c1ccc(NC(=O)c2ccc(OCCOc3ccc(C(=O)Nc4ccc5[nH]c(*)nc5c4)cc3)cc2)cc1` (repeat unit) yielded a glass transition temperature of 225.00 °C.

Compound `*c1ccc(NC(=O)c2cccc(C(=O)Nc3ccc(-n4c(=O)c5cc6c(=O)n(*)c(=O)c6cc5c4=O)cc3)c2)cc1` (repeat unit) came in with a glass transition temperature of 296.00 °C.

`*c1ccc(NC2CC(=O)N(c3ccc(-c4sc(-c5ccc(N6C(=O)CC(Nc7ccc(-c8nc(-c9ccc(/C=C/c%10ccc([N+](=O)[O-])cc%10)s9)[nH]c8*)cc7)C6=O)cc5)c(-c5ccccc5)c4-c4ccccc4)cc3)C2=O)cc1` (repeat unit) came in with a glass transition temperature of 304.00 °C.

In turn, `*c1ccc(NC2CC(=O)N(c3ccc(Cc4ccc(N5C(=O)CC(Nc6ccc(-c7nc(-c8ccc(/C=C/c9ccc([N+](=O)[O-])cc9)cc8)[nH]c7*)cc6)C5=O)cc4)cc3)C2=O)cc1` (repeat unit) gave a glass transition temperature of 250.00 °C.

Source of the values: the PolyMetriX glass transition set.
